From US9179694B2, “Method and composition for enhancing milk production and milk component concentrations” (PURINA ANIMAL NUTRITION LLC, priority 2003, dated 2015)
Marks after values point to notes of the source that are not given here.

Assay: 4% fat-corrected milk production in sorbitol feeding trials
Format: in vivo, Holstein cows
Excerpt: To convert a particular quantity (weight) of a milk sample to the quantity (weight) of Fat-Corrected Milk, based on a correction to a concentration of four weight percent fat, based on the total weight off the Fat-Corrected Milk, the following equation is employed: 4 wt % FCM=Original Milk Weight×(0.4+(0.15×% TFOM)) where: • the term 4 wt % FCM means the calculated weight of Fat-Corrected Milk, based on a correction to a concentration of four weight percent fat, based on the total weight of the Fat-Corrected Milk, • the term Original Milk Weight means the weight of the original milk sample that is being corrected to a four weight percent fat basis, and • % TFOM is the weight % total fat in the original milk sample, based on the total weight of the original milk sample. Each cow of each of the six different trials (Control Trial #1, Control Trial #2, Pre-Partum Trial #1, Pre-Partum Trial #2, Pre/Post Trial #1, and Pre/Post Trial #2) was milked three times daily and the weight of produced milk by each cow was recorded at each milking. The milk from each cow was sampled once per week (⅓ of the sample volume from each of the three milkings occurring on the weekly milk sampling day) and was analyzed for true protein, total fat, lactose, and total solids, as detailed in the property determination and characterization techniques presented above. Additionally, samples of blood were periodically obtained from each cow during the four trials (Control Trial 2, Pre-Partum Trial #2, Pre/Post Trial #1, and Pre/Post Trial #2) encompassed in Example Two and were analyzed for non-esterified fatty acid (NEFA) content as detailed in the property determination and characterization techniques presented above. No NEFA analysis was conducted on the cows employed in Control Trial #1 or Pre-Partum Trial #1 that are the subject of Example One. Example One includes Control Trial #1 and Pre-Partum Trial #1. Both primiparious cows and multiparious cows were included in Control Trial #1 and Pre-Partum Trial #1. Five primiparious cows and fifteen multiparious cows were included in Control Trial #1; likewise, five primiparious cows and fifteen multiparious cows were included in Pre-Partum Trial #1. All cows included in Control Trial #1 and Pre-Partum Trial #1 were Holsteins. Example Two includes Control Trial #2, Pre-Partum Trial #2, Pre/Post Trial #1, and Pre/Post Trial #2. Only multiparious, Holstein cows were included in Control Trial #2, Pre-Partum Trial #1, Pre/Post Trial #1, and Pre/Post Trial #2. Eighteen multiparious cows were included in both Control Trial #2 and Pre-Partum Trial #2, while sixteen multiparious cows were included in Pre/Post Trial #1 and seventeen multiparious cows were included in Pre/Post Trial #2.

OC[C@@H](O)[C@@H](O)[C@H](O)[C@@H](O)CO [sorbitol]
Milk Production (4.0% fat basis) (Pre-Partum Trial #1 (75/0/0 g/day in wk −3..−1/+1..+4/+5..+8), multiparious cows, weeks +1 through +8): 98.6 lbs/day | Milk Production (4.0% fat basis) (Pre-Partum Trial #1 (75/0/0 g/day in wk −3..−1/+1..+4/+5..+8), primiparious cows, weeks +1 through +8): 79.3 lbs/day | 4% fat-corrected milk production increase (Pre-Partum Trial #1 (75 g/day wk −3..−1 only) versus Control Trial #1, multiparious cows, weeks +1 through +8): 12.4% | increase in production of 4% fat-corrected milk (Pre-Partum Trial #1 (75 g/day wk −3..−1 only) versus Control Trial #1, primiparious cows, weeks +1 through +8): 7.6% | Milk Production (4.0% fat basis) (Pre-Partum Trial #2 (75/0/100 g/day in wk −3..−1/+1..+4/+5..+8), multiparious cows, week +1): 71.1^a lbs/day | Milk Production (4.0% fat basis) (Pre-Partum Trial #2 (75/0/100 g/day in wk −3..−1/+1..+4/+5..+8), multiparious cows, week +2): 100 lbs/day | Milk Production (4.0% fat basis) (Pre-Partum Trial #2 (75/0/100 g/day in wk −3..−1/+1..+4/+5..+8), multiparious cows, week +3): 104 lbs/day | Milk Production (4.0% fat basis) (Pre-Partum Trial #2 (75/0/100 g/day in wk −3..−1/+1..+4/+5..+8), multiparious cows, week +4): 101 lbs/day | Milk Production (4.0% fat basis) (Pre-Partum Trial #2 (75/0/100 g/day in wk −3..−1/+1..+4/+5..+8), multiparious cows, week +5): 104^ab lbs/day | Milk Production (4.0% fat basis) (Pre-Partum Trial #2 (75/0/100 g/day in wk −3..−1/+1..+4/+5..+8), multiparious cows, week +6): 102 lbs/day | Milk Production (4.0% fat basis) (Pre-Partum Trial #2 (75/0/100 g/day in wk −3..−1/+1..+4/+5..+8), multiparious cows, week +7): 102 lbs/day | Milk Production (4.0% fat basis) (Pre-Partum Trial #2 (75/0/100 g/day in wk −3..−1/+1..+4/+5..+8), multiparious cows, week +8): 99.5^ab lbs/day | Milk Production (4.0% fat basis) (Pre-Partum Trial #2 (75/0/100 g/day in wk −3..−1/+1..+4/+5..+8), multiparious cows, weeks +1 through +4): 94.4 lbs/day | Milk Production (4.0% fat basis) (Pre-Partum Trial #2 (75/0/100 g/day in wk −3..−1/+1..+4/+5..+8), multiparious cows, weeks +1 through +8): 98 lbs/day | Milk Production (4.0% fat basis) (Pre-Partum Trial #2 (75/0/100 g/day in wk −3..−1/+1..+4/+5..+8), multiparious cows, weeks +5 through +8): 102 lbs/day | Milk Production (4.0% fat basis) (Pre/Post Trial #1 (150/125/100 g/day in wk −3..−1/+1..+4/+5..+8), multiparious cows, week +1): 82.1^ab lbs/day | Milk Production (4.0% fat basis) (Pre/Post Trial #1 (150/125/100 g/day in wk −3..−1/+1..+4/+5..+8), multiparious cows, week +1, two-trial comparison with Control Trial #2 (Table 23)): 82.4 lbs/day | Milk Production (4.0% fat basis) (Pre/Post Trial #1 (150/125/100 g/day in wk −3..−1/+1..+4/+5..+8), multiparious cows, week +2): 100 lbs/day | Milk Production (4.0% fat basis) (Pre/Post Trial #1 (150/125/100 g/day in wk −3..−1/+1..+4/+5..+8), multiparious cows, week +2, two-trial comparison with Control Trial #2 (Table 23)): 99.7 lbs/day | Milk Production (4.0% fat basis) (Pre/Post Trial #1 (150/125/100 g/day in wk −3..−1/+1..+4/+5..+8), multiparious cows, week +3): 107 lbs/day | Milk Production (4.0% fat basis) (Pre/Post Trial #1 (150/125/100 g/day in wk −3..−1/+1..+4/+5..+8), multiparious cows, week +3, two-trial comparison with Control Trial #2 (Table 23)): 107 lbs/day | Milk Production (4.0% fat basis) (Pre/Post Trial #1 (150/125/100 g/day in wk −3..−1/+1..+4/+5..+8), multiparious cows, week +4): 109 lbs/day | Milk Production (4.0% fat basis) (Pre/Post Trial #1 (150/125/100 g/day in wk −3..−1/+1..+4/+5..+8), multiparious cows, week +4, two-trial comparison with Control Trial #2 (Table 23)): 109 lbs/day | Milk Production (4.0% fat basis) (Pre/Post Trial #1 (150/125/100 g/day in wk −3..−1/+1..+4/+5..+8), multiparious cows, week +5): 108^ab lbs/day | Milk Production (4.0% fat basis) (Pre/Post Trial #1 (150/125/100 g/day in wk −3..−1/+1..+4/+5..+8), multiparious cows, week +5, two-trial comparison with Control Trial #2 (Table 23)): 108 lbs/day | Milk Production (4.0% fat basis) (Pre/Post Trial #1 (150/125/100 g/day in wk −3..−1/+1..+4/+5..+8), multiparious cows, week +6): 109 lbs/day | Milk Production (4.0% fat basis) (Pre/Post Trial #1 (150/125/100 g/day in wk −3..−1/+1..+4/+5..+8), multiparious cows, week +6, two-trial comparison with Control Trial #2 (Table 23)): 109 lbs/day | Milk Production (4.0% fat basis) (Pre/Post Trial #1 (150/125/100 g/day in wk −3..−1/+1..+4/+5..+8), multiparious cows, week +7): 103 lbs/day | Milk Production (4.0% fat basis) (Pre/Post Trial #1 (150/125/100 g/day in wk −3..−1/+1..+4/+5..+8), multiparious cows, week +7, two-trial comparison with Control Trial #2 (Table 23)): 103 lbs/day | Milk Production (4.0% fat basis) (Pre/Post Trial #1 (150/125/100 g/day in wk −3..−1/+1..+4/+5..+8), multiparious cows, week +8): 108.7^b lbs/day | Milk Production (4.0% fat basis) (Pre/Post Trial #1 (150/125/100 g/day in wk −3..−1/+1..+4/+5..+8), multiparious cows, week +8, two-trial comparison with Control Trial #2 (Table 23)): 109 lbs/day | Milk Production (4.0% fat basis) (Pre/Post Trial #1 (150/125/100 g/day in wk −3..−1/+1..+4/+5..+8), multiparious cows, weeks +1 through +4): 99.5 lbs/day | Milk Production (4.0% fat basis) (Pre/Post Trial #1 (150/125/100 g/day in wk −3..−1/+1..+4/+5..+8), multiparious cows, weeks +1 through +4, two-trial comparison with Control Trial #2 (Table 23)): 99.7 lbs/day | Milk Production (4.0% fat basis) (Pre/Post Trial #1 (150/125/100 g/day in wk −3..−1/+1..+4/+5..+8), multiparious cows, weeks +1 through +8): 103 lbs/day | Milk Production (4.0% fat basis) (Pre/Post Trial #1 (150/125/100 g/day in wk −3..−1/+1..+4/+5..+8), multiparious cows, weeks +1 through +8, two-trial comparison with Control Trial #2 (Table 23)): 103 lbs/day | Milk Production (4.0% fat basis) (Pre/Post Trial #1 (150/125/100 g/day in wk −3..−1/+1..+4/+5..+8), multiparious cows, weeks +5 through +8): 107 lbs/day | Milk Production (4.0% fat basis) (Pre/Post Trial #1 (150/125/100 g/day in wk −3..−1/+1..+4/+5..+8), multiparious cows, weeks +5 through +8, two-trial comparison with Control Trial #2 (Table 23)): 107 lbs/day | greater production of 4% fat-corrected milk (Pre/Post Trial #1 (150/125/100 g/day) versus Control Trial #2, multiparious cows, week +8): 13.2% | increase in production of 4% fat-corrected milk (Pre/Post Trial #1 (150/125/100 g/day) versus Control Trial #2, multiparious cows, weeks +5 through +8 (Table 23)): 8.1% | greater rate of 4% fat-corrected milk production (Pre/Post Trial #1 (150/125/100 g/day) versus Pre/Post Trial #2 (75/75/100 g/day), multiparious cows, week +8): 15.1% | Milk Production (4.0% fat basis) (Pre/Post Trial #2 (75/75/100 g/day in wk −3..−1/+1..+4/+5..+8), multiparious cows, week +1): 88.6^b lbs/day | Milk Production (4.0% fat basis) (Pre/Post Trial #2 (75/75/100 g/day in wk −3..−1/+1..+4/+5..+8), multiparious cows, week +2): 103 lbs/day | Milk Production (4.0% fat basis) (Pre/Post Trial #2 (75/75/100 g/day in wk −3..−1/+1..+4/+5..+8), multiparious cows, week +3): 106 lbs/day | Milk Production (4.0% fat basis) (Pre/Post Trial #2 (75/75/100 g/day in wk −3..−1/+1..+4/+5..+8), multiparious cows, week +4): 105 lbs/day | Milk Production (4.0% fat basis) (Pre/Post Trial #2 (75/75/100 g/day in wk −3..−1/+1..+4/+5..+8), multiparious cows, week +5): 111^b lbs/day | Milk Production (4.0% fat basis) (Pre/Post Trial #2 (75/75/100 g/day in wk −3..−1/+1..+4/+5..+8), multiparious cows, week +6): 104 lbs/day | Milk Production (4.0% fat basis) (Pre/Post Trial #2 (75/75/100 g/day in wk −3..−1/+1..+4/+5..+8), multiparious cows, week +7): 101 lbs/day | Milk Production (4.0% fat basis) (Pre/Post Trial #2 (75/75/100 g/day in wk −3..−1/+1..+4/+5..+8), multiparious cows, week +8): 94.4^a lbs/day | Milk Production (4.0% fat basis) (Pre/Post Trial #2 (75/75/100 g/day in wk −3..−1/+1..+4/+5..+8), multiparious cows, weeks +1 through +4): 100.6 lbs/day | Milk Production (4.0% fat basis) (Pre/Post Trial #2 (75/75/100 g/day in wk −3..−1/+1..+4/+5..+8), multiparious cows, weeks +1 through +8): 101 lbs/day | Milk Production (4.0% fat basis) (Pre/Post Trial #2 (75/75/100 g/day in wk −3..−1/+1..+4/+5..+8), multiparious cows, weeks +5 through +8): 102 lbs/day | greater production of 4% fat-corrected milk (Pre/Post Trial #2 (75/75/100 g/day) versus Control Trial #2, multiparious cows, week +5): 12.1% | greater rate of 4% fat-corrected milk production (Pre/Post Trial #2 (75/75/100 g/day) versus Pre-Partum Trial #2 (75/0/100 g/day), multiparious cows, week +1): 24.6%
